Results as given in patent US11026956B2, “Cancer drug and uses” (Health Clinics Limited, priority 2013, dated 2021).

What was measured:
MCF-7 cells = assay: Percentage of survival of MCF-7 cells by LDH content; type: cell-based; conditions: 72 hours; for percent of survival of MCF-7 cells, administered more than once: re-dosing at 24 and 48 h; for percent of survival of MCF-7 cells, administered more than once / effect on percent of survival of MCF-7 cells, dosed singly: without Artesunate; for effect on percent of survival of MCF-7 cells, dosed singly: single dose; for survival of MCF-7 cells, therapeutic administered individually: dosed once or multiple times (re-dosing at 24 and 48 h)
Description: To assess the effect of Artesunate in combination with several other therapeutics, MCF-7 cells were treated with different concentrations of these therapeutic compounds either once or through repeated dosing. The percentage of survival was calculated based on the LDH contents of cells. 1. 100 ul of cells suspension […]) were added to each well (3000 cells/well), with a total of 5 plates were seeded. […] [table] The appropriate volume of 100% Ethanol was added to Artesunate to obtain a concentration of 10 mg/ml. This was further diluted in 100% Ethanol to 1 mg/ml (1:10). 4 ug/ml was obtained by diluting 1 mg/ml (1:250) in complete medium. Further double decreasing dilutions were carried out in complete medium containing 0.4% Ethanol. […] This was further diluted in complete medium to 16 mM (1:6.25). Further double decreasing dilutions were carried out in complete medium. 2 mg of MMC were resuspended in 4 ml of sterile water to obtain a stock at 0.5 mg/ml. A second dilution of MMC was carried out by diluting 0.5 mg/ml in complete medium to 0.1 mg/ml (1:5). 4. Once the treatments were ready, 50 ul/well of Artesunate was added to the plates. […] 5. 50 ul of complete medium at 0.4% Ethanol and 50 ul of just complete medium were added to the corresponding control wells already containing either 100 ul of cells (positive control) or just 100 ul of complete medium (background control) 6. 100 ul of MMC at 100 ug/ml was added to the corresponding wells already containing 100 ul of cells in complete medium as a negative control and finally, plates were placed in the incubator. […] Media was removed from the wells by using a multichannel pipette. Wells were washed with 200 ul/well of PBS previously warmed at 37° C. 100 ul of Titron 1× in PBS previously warmed at 37° C. were added to the wells. Subsequently, the plate was placed at 37° C. in the dark for 45 min. 50 ul from each well was transferred to a non sterile 96-well plate. 50 ul of LDH substrate were added to each well of the non sterile plate already containing 50 ul/well of lysed cells and the plates were then incubating at room temperature in the dark for 30 min. 50 ul of Stop solution was added to each well and then the plate was read at 492 nm. 8. After 48 h of cells treatment, one of the 2 plates that had been re-dosed after 24 h was re-dosed again (treatments were prepared as described above for re-dosing). One of the 2 plates that had been treated just once will remain as it was in the incubator. The remaining 2 plates were used to measure the % of survival by LDH after 48 h of single treatment and after re-dosing at 24 h (LDH assay was performed as described above). Day 3: LDH-72 h and LDH-Re-Dosing at 24 h and at 48 h After 72 h of cells treatment, there were just 2 plates left in the incubator. They were used to measure the of survival by LDH after 72 h of single treatment and after re-dosing at 24 h and 48 h (LDH assay was performed as described above).

[1] = compared with arteether and artemether; cited from earlier work
[2] = cited from earlier work
[3] = test system: ovarian cancer cell lines; conditions: cited from earlier work
[4] = test system: human leukemia HL60 cells; conditions: cited from earlier work
[5] = test system: human pancreatic cancer BxPC-3 cells; conditions: cited from earlier work
[6] = test system: human pancreatic cancer AsPC-1 cells; conditions: cited from earlier work
metastatic breast cancer = assay: Case reports: patients with metastatic breast cancer (CAT scan, symptoms, survival); type: in vivo, human; conditions: single patient
From the text: A patient comprising a person was diagnosed by their physician with advanced metastatic breast cancer. The metastatic breast cancer consisted of tumors, including several found in both lungs. The physician prescribed a standard set of cancer therapeutics in an attempt to reduce or maintain the tumors. […] The physician placed the patient on a paliative care regime and provided the patient with several doses of the aromatase inhibitor, letrazole. […] The patient was next administered a treatment consisting of artemether at a dose of 40 mg OD, presented in a lipid filled capsule comprising tributyrin and G43.
A patient comprising a person was diagnosed by their physician with extensive metastaic breast cancer. The patient presented with tumors in brain liver and lungs. The patient also presented with symptoms that included shortness of breath and a persistent cough. The patient informed the physician that they would not take part in a standard chemotherapy treatment protocol. The physician informed the patient that they would only live for about three months survival. The patient was instead administered artemether at a dose of 40 mg OD, presented as a lipid filled capsule comprising tributyrin and G43. As a result of the treatment, the symptoms the patient suffered from, including, shortness of breath and a persistent cough diminished over the weeks following treatment with arthemether. […]

O=c1c(-c2ccc(O)cc2)coc2cc(O)ccc12 [Daidzein]
percent of survival of MCF-7 cells, administered more than once (MCF-7 cells): decreasing marginally
effect on percent of survival of MCF-7 cells, dosed singly (MCF-7 cells): only minimal effect

Oc1ccc(C=Cc2cc(O)cc(O)c2)cc1 [Resveratrol]
percent of survival of MCF-7 cells, administered more than once (MCF-7 cells): decreasing marginally
effect on percent of survival of MCF-7 cells, dosed singly (MCF-7 cells): only minimal effect

CCCC(=O)[O-].[Na+] [Sodium Butyrate]
survival of MCF-7 cells, therapeutic administered individually (MCF-7 cells): decreased the survival of MCF-7 cells

C[C@H]1[C@@H](OCc2ccc(C(=O)O)cc2)O[C@@H]2O[C@@]3(C)CC[C@H]4[C@H](C)CC[C@@H]1[C@@]24OO3 [Artelinic acid]
rate of neurotoxicity [1]: lower rate of neurotoxicity than the related artemisin derivatives arteether and artemether

C[C@@H]1CC[C@H]2[C@@H](C)C(=O)O[C@@H]3O[C@@]4(C)CC[C@@H]1[C@]32OO4 [artemisinin]
bioavailability [2]: poor bioavailability

CO[C@H]1O[C@@H]2O[C@@]3(C)CC[C@H]4[C@H](C)CC[C@@H]([C@H]1C)[C@@]24OO3 [artemether, (+)-(3-alpha,5a-beta,6-beta,8a-beta, 9-alpha,12-beta,12aR)-decahydro-10-methoxy-3,6,9-trimethyl-3,12-epoxy-12H-pyrano(4,3-j)-1,2-benzodioxepin]
cytotoxicity (apoptosis, G2 cell cycle arrest) [3]: dose- and time-dependent cytotoxicity
cytotoxicity (apoptosis, G2 cell cycle arrest) [4]: dose- and time-dependent cytotoxicity
cytotoxicity (apoptosis, G2 cell cycle arrest) [5]: dose- and time-dependent cytotoxicity
cytotoxicity (apoptosis, G2 cell cycle arrest) [6]: dose- and time-dependent cytotoxicity

N#Cc1ccc(C(c2ccc(C#N)cc2)n2cncn2)cc1 [letrazole]
tumor progression (CAT scan) (metastatic breast cancer; after several doses of the aromatase inhibitor on palliative care): progressing
growth of one tumor in a lung (metastatic breast cancer; in three months, after several doses of the aromatase inhibitor): 50%

C[C@H]1[C@H](OC(=O)CCC(=O)O)O[C@@H]2O[C@@]3(C)CC[C@H]4[C@H](C)CC[C@@H]1[C@@]24OO3 [Artesunate]
survival of MCF-7 cells, therapeutic administered individually (MCF-7 cells): decreased the survival of MCF-7 cells

Oc1ccc([C@H]2COc3cc(O)ccc3C2)cc1 [Equol]
percent of survival of MCF-7 cells, administered more than once (MCF-7 cells): decreasing marginally
effect on percent of survival of MCF-7 cells, dosed singly (MCF-7 cells): only minimal effect
